This note sets out measurements from patent US20120053197A1, “TRICYCLIC PYRIDINE DERIVATIVES, MEDICAMENTS CONTAINING SUCH COMPOUNDS, THEIR USE AND PROCESS FOR THEIR PREPARATION” (BOEHRINGER INGELHEIM INTERNATIONAL GMBH, priority 2010, published 2012).

Structures are written as SMILES.

This test deals with T1, recombinant human CETP (Homo sapiens, UniProt P11597).
T1 construct: made in house; host or cells: CHO cells (protein secreted into conditioned medium)
T1 sequence (P11597 18-493): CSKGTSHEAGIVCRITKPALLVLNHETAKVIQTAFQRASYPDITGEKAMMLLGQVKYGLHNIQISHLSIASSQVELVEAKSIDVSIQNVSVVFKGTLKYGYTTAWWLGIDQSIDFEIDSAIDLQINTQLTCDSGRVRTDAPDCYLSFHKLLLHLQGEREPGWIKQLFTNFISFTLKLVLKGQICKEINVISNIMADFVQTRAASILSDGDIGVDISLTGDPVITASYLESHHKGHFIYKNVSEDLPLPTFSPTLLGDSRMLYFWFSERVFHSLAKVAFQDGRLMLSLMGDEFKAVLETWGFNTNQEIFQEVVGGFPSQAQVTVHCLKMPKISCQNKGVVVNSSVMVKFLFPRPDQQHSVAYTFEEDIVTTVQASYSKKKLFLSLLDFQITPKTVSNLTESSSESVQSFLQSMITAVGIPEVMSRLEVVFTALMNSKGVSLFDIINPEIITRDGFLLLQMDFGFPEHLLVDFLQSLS
The test can be described thus: CETP in vitro fluorometric assay (Roar Biomedical), cholesterol ester transfer from HDL to LDL. To be noted: recombinant human CETP from CHO cells; 3 hours at 37° C.; fluorescence ex 485 nm / em 535 nm; compound concentrations between 1 nM and 30 μM; read-out: IC50 values for inhibition of CETP. In kind it is biochemical. How it is done: CETP inhibitory activity of compounds of the present invention can be determined in a fluorometric assay puchased from Roar Biomedical, Inc. (New York, N.Y., USA). […] Recombinant human CETP was partially purified from medium conditioned by CETP expressing CHO cells. In a 384 well format 2.5 μl of compound solution in DMSO was combined with 2 μl of donor solution, 2 μl of acceptor solution and 0.8 μl of recombinant human CETP solution in a total volume of 100 μl with assay buffer and incubated for 3 hours at 37° C. The fluorescence intensity was measured at excitation wavelength of 485 nm and emission wavelength of 535 nm. IC50 values are calculated from dose effect curves from compound concentrations between 1 nM and 30 μM.
For `CC1(C)Cc2nc(C3CCOCC3)c3c(c2[C@@H](O)C1)C1(CCOCC1)O[C@@H]3c1ccc(C(F)(F)F)cc1` [1(39), (3R,9S)-7,7-dimethyl-4-(tetrahydro-2H-pyran-4-yl)-3-(4-(trifluoromethyl)phenyl)-2′,3′,5′,6,6′,7,8,9-octahydro-3H-spiro[furo[3,4-c]quinoline-1,4′-pyran]-9-ol], the concentration for half-maximal inhibition (IC50) stood at 56 nM.

Regarding `CC1(C)Cc2nc(C3CCOCC3)c3c(c2[C@@H](O)C1)C1(CCCC1)O[C@@H]3c1ccc(C(F)(F)F)cc1` [1(5), (3′R,9′S)-7′,7′-dimethyl-4′-(tetrahydro-2H-pyran-4-yl)-3′-(4-(trifluoromethyl)phenyl)-6′,7′,8′,9′-tetrahydro-3′H-spiro[cyclopentane-1,1′-furo[3,4-c]quinolin]-9′-ol], the IC50 was 42 nM.

Regarding `CC(C)c1nc2c(c3c1[C@@H](c1ccc(C(C)(C)C)cc1)OC31CCCC1)[C@@H](O)CC(C)(C)C2` [1(11), (3′R,9′S)-3′-(4-tert-butylphenyl)-4′-isopropyl-7′,7′-dimethyl-6′,7′,8′,9′-tetrahydro-3′H-spiro[cyclopentane-1,1′-furo[3,4-c]quinolin]-9′-ol], the IC50 is 36 nM.

Consider `CC(C)c1nc2c(c3c1[C@@H](c1ccc(C(F)(F)F)cc1)OC31CCCC1)[C@@H](O)CC(C)(C)[C@H]2O` [Example 3, (3′R,6′R,9′S)-4′-isopropyl-7′,7′-dimethyl-3′-(4-(trifluoromethyl)phenyl)-6′,7′,8′,9′-tetrahydro-3′H-spiro[cyclopentane-1,1′-furo[3,4-c]quinoline]-6′,9′-diol], for which the 50% inhibitory concentration (IC50) was found to be 20 nM.

Regarding `CC(C)c1nc2c(c3c1[C@@H](c1ccc(C(F)(F)F)c(F)c1)OC31CCCC1)[C@@H](O)CC(C)(C)C2` [1(16), (3′R,9′S)-3′-(3-fluoro-4-(trifluoromethyl)phenyl)-4′-isopropyl-7′,7′-dimethyl-6′,7′,8′,9′-tetrahydro-3′H-spiro[cyclopentane-1,1′-furo[3,4-c]quinolin]-9′-ol], the IC50 came to 43 nM.

In the case of `CC(C)c1nc2c(c3c1[C@@H](c1ccc(C(F)(F)F)cc1)OC31CCCC1)[C@@H](O)CC(C)(C)[C@@H]2O` [3(1), (3′R,6′S,9′S)-4′-isopropyl-7′,7′-dimethyl-3′-(4-(trifluoromethyl)phenyl)-6′,7′,8′,9′-tetrahydro-3′H-spiro[cyclopentane-1,1′-furo[3,4-c]quinoline]-6′,9′-diol], the IC50 stood at 394 nM.

Turning to `CC(C)c1ccc([C@H]2OC3(CCCC3)c3c2c(C(C)C)nc2c3[C@@H](O)CC(C)(C)C2)cc1` [1(7), (3′R,9′S)-4′-isopropyl-3′-(4-isopropylphenyl)-7′,7′-dimethyl-6′,7′,8′,9′-tetrahydro-3′H-spiro[cyclopentane-1,1′-furo[3,4-c]quinolin]-9′-ol], the IC50 worked out at 77 nM.

Regarding `CC(C)c1ccc([C@H]2OC3(CCCC3)c3c2c(C2CCCC2)nc2c3[C@@H](O)CC(C)(C)C2)cc1` [1(29), (3′R,9′S)-4′-cyclopentyl-3′-(4-isopropylphenyl)-7′,7′-dimethyl-6′,7′,8′,9′-tetrahydro-3′H-spiro[cyclopentane-1,1′-furo[3,4-c]quinolin]-9′-ol], the IC50 was 88 nM.

Regarding `CC(C)c1nc2c(c3c1[C@@H](c1ccc(C(C)(C)C)cc1)OC3(C)C)[C@@H](O)CC(C)(C)C2` [1(18), (3R,9S)-3-(4-tert-butylphenyl)-4-isopropyl-1,1,7,7-tetramethyl-1,3,6,7,8,9-hexahydrofuro[3,4-c]quinolin-9-ol], the half-maximal inhibitory concentration (IC50) came out at 363 nM.

For `CC(C)c1nc2c(c3c1[C@@H](c1ccc(C(F)(F)F)cn1)OC31CCCC1)[C@@H](O)CC(C)(C)C2` [1(21), (3′S,9′S)-4′-isopropyl-7′,7′-dimethyl-3′-(5-(trifluoromethyl)pyridin-2-yl)-6′,7′,8′,9′-tetrahydro-3′H-spiro[cyclopentane-1,1′-furo[3,4-c]quinolin]-9′-ol], the concentration for half-maximal inhibition (IC50) stood at 124 nM.

As for `CC(C)c1nc2c(c3c1[C@@H](c1cc(F)cc(F)c1)OC31CCCC1)[C@@H](O)CC(C)(C)C2` [1(38), (3′R,9′S)-3′-(3,5-difluorophenyl)-4′-isopropyl-7′,7′-dimethyl-6′,7′,8′,9′-tetrahydro-3′H-spiro[cyclopentane-1,1′-furo[3,4-c]quinolin]-9′-ol], the IC50 was determined as 3320 nM.

`CC(C)c1nc2c(c3c1[C@H](c1ccc(C(C)(C)C#N)cc1)OC31CCCC1)[C@@H](O)CC(C)(C)C2` [1(23), 2-(4-((3′S,9′S)-9′-hydroxy-4′-isopropyl-7′,7′-dimethyl-6′,7′,8′,9′-tetrahydro-3′H-spiro[cyclopentane-1,1′-furo[3,4-c]quinoline]-3′-yl)phenyl)-2-methylpropanenitrile]: the half-maximal inhibitory concentration (IC50) came to 2140 nM.

As to `CC1(C)Cc2nc(C3CCCC3)c3c(c2[C@@H](O)C1)C1(CCCC1)O[C@@H]3c1ccc(F)cc1` [1(10), (3′R,9′S)-4′-cyclopentyl-3′-(4-fluorophenyl)-7′,7′-dimethyl-6′,7′,8′,9′-tetrahydro-3′H-spiro[cyclopentane-1,1′-furo[3,4-c]quinolin]-9′-ol], the IC50 came out at 360 nM.

Turning to `CCc1nc2c(c3c1[C@@H](c1ccc(C(F)(F)F)cc1)OC31CCCC1)[C@@H](O)CC(C)(C)C2` [1(37), (3′R,9′S)-4′-ethyl-7′,7′-dimethyl-3′-(4-(trifluoromethyl)phenyl)-6′,7′,8′,9′-tetrahydro-3′H-spiro[cyclopentane-1,1′-furo[3,4-c]quinolin]-9′-ol], the IC50 is 418 nM.

On to `CC(C)c1nc2c(c3c1[C@@H](c1cnc(C(C)(C)C)nc1)OC31CCCC1)[C@@H](O)CC(C)(C)C2` [1(25), (3′R,9′S)-3′-(2-tert-butylpyrimidin-5-yl)-4′-isopropyl-7′,7′-dimethyl-6′,7′,8′,9′-tetrahydro-3′H-spiro[cyclopentane-1,1′-furo[3,4-c]quinolin]-9′-ol], for which the IC50 was determined as 772 nM.

With `CC(C)(C)c1ccc([C@H]2OC3(CCCC3)c3c2c(C2CCOCC2)nc2c3[C@@H](O)CC(C)(C)[C@H]2O)cc1` [Example 4, (3′R,6′R,9′S)-3′-(4-tert-butylphenyl)-7′,7′-dimethyl-4′-(tetrahydro-2H-pyran-4-yl)-6′,7′,8′,9′-tetrahydro-3′H-spiro[cyclopentane-1,1′-furo[3,4-c]quinoline]-6′,9′-diol], the 50% inhibitory concentration (IC50) stood at 62 nM.

For the molecule `CC(C)c1nc2c(c3c1[C@H](c1ccc(C(F)(F)F)cc1)OC31CCCC1)[C@@H](O)CC(C)(C)C2` [1(1), (3′S,9′S)-4′-isopropyl-7′,7′-dimethyl-3′-(4-(trifluoromethyl)phenyl)-6′,7′,8′,9′-tetrahydro-3′H-spiro[cyclopentane-1,1′-furo[3,4-c]quinolin]-9′-ol], the IC50 turned out to be 1430 nM.

As to `CC(C)c1nc2c(c3c1[C@@H](c1ccc(C#N)cc1)OC31CCCC1)[C@@H](O)CC(C)(C)C2` [1(20), 4-((3′R,9′S)-9′-hydroxy-4′-isopropyl-7′,7′-dimethyl-6′,7′,8′,9′-tetrahydro-3′H-spiro[cyclopentane-1,1′-furo[3,4-c]quinoline]-3′-yl)benzonitrile], the IC50 was found to be 1080 nM.

Regarding `CC(C)c1nc2c(c3c1[C@@H](c1ccc(C4(C)CC4)cc1)OC31CCCC1)[C@@H](O)CC(C)(C)C2` [1(40), (3′R,9′S)-4′-isopropyl-7′,7′-dimethyl-3′-(4-(1-methylcyclopropyl)phenyl)-6′,7′,8′,9′-tetrahydro-3′H-spiro[cyclopentane-1,1′-furo[3,4-c]quinolin]-9′-ol], the IC50 was 37 nM.

Turning to `CC(=O)O[C@@H]1c2nc(C(C)C)c3c(c2[C@@H](O)CC1(C)C)C1(CCCC1)O[C@@H]3c1ccc(C(F)(F)F)cc1` [1(34), (3′R,6′S,9′S)-9′-hydroxy-4′-isopropyl-7′,7′-dimethyl-3′-(4-(trifluoromethyl)phenyl)-6′,7′,8′,9′-tetrahydro-3′H-spiro[cyclopentane-1,1′-furo[3,4-c]quinoline]-6′-yl acetate], the half-inhibitory concentration (IC50) came out at 137 nM.

Regarding `CC(C)c1ccc([C@H]2OC3(CCCC3)c3c2c(C(C)C)nc2c3[C@@H](O)CC3(CCC3)C2)cc1` [1(35), (3′R,9′S)-4′-isopropyl-7′,7′-(propan-1,3-diyl)-3′-(4-(isopropyl)phenyl)-6′,7′,8′,9′-tetrahydro-3′H-spiro[cyclopentane-1,1′-furo[3,4-c]quinolin]-9′-ol], the 50% inhibitory concentration (IC50) was 52 nM.

For `CC1(C)Cc2nc(C3CCOCC3)c3c(c2[C@@H](O)C1)C1(CCCC1)O[C@@H]3c1ccc(S(F)(F)(F)(F)F)cc1` [1(43), (3′R,9′S)-7′,7′-dimethyl-4′-(tetrahydro-2H-pyran-4-yl)-3′-(4-(pentafluorosulfanyl)phenyl)-6′,7′,8′,9′-tetrahydro-3′H-spiro[cyclopentane-1,1′-furo[3,4-c]quinolin]-9′-ol], the IC50 is 22 nM.

Consider `CC(C)c1nc2c(c3c1[C@@H](c1ccc(C(C)(C)O)cc1)OC31CCCC1)[C@@H](O)CC(C)(C)C2` [1(26), (3′R,9′S)-3′-(4-(2-hydroxypropan-2-yl)phenyl)-4′-isopropyl-7′,7′-dimethyl-6′,7′,8′,9′-tetrahydro-3′H-spiro[cyclopentane-1,1′-furo[3,4-c]quinolin]-9′-ol], for which the concentration for half-maximal inhibition (IC50) was 875 nM.

Broadly, the IC50 is the point on the concentration scale where inhibition reaches its midpoint.
